# From ChEMBL document CHEMBL5715954, “Silencing c-Myc translation as a therapeutic strategy through targeting PI3Kδ and CK1ε in hematological malignancies” (Blood, 2017)
# Activity calls are given as the source filed them. No cut-off for these calls is given here.
# Tests used:
# [1] = target: Myc proto-oncogene protein (Homo sapiens) (UniProt P01106); experiment: Inhibition of c-Myc in human LY7 cells assessed as reduction in E2F1 expression at 3 uM incubated for 24 hrs in presence of bortezomib by Western blot analysis; assay type: cell-based
# [2] = Cytotoxicity against human PBMC assessed as reduction in cell viability at 2.5 to 5 uM measured after 24 to 72 hrs in presence of carfilzomib by cell-titer glo assay; assay type: toxicity, cell-based; details: dose lower 2.5 µM, time lower 24 hrs, dose upper 5 µM, time upper 72 hrs
# mTORC1 (Homo sapiens) = mTORC1 (Homo sapiens) (UniProt P42345+Q8N122+Q9BVC4); experiment: Inhibition of mTORC1 in human LY7 cells assessed as reduction in c-Myc expression at 3 uM measured after 24 hrs in presence of carfilzomib by Western blot analysis; assay type: cell-based
# [3] = target: T1, Phosphatidylinositol 4,5-bisphosphate 3-kinase catalytic subunit delta isoform (Homo sapiens) (UniProt O00329); experiment: Inhibition of PI3Kdelta in human DB cells assessed as reduction in AKT phosphorylation at S473 residue at 1 uM measured after 4 hrs relative to control; assay type: cell-based
# T1 sequence (whole entry): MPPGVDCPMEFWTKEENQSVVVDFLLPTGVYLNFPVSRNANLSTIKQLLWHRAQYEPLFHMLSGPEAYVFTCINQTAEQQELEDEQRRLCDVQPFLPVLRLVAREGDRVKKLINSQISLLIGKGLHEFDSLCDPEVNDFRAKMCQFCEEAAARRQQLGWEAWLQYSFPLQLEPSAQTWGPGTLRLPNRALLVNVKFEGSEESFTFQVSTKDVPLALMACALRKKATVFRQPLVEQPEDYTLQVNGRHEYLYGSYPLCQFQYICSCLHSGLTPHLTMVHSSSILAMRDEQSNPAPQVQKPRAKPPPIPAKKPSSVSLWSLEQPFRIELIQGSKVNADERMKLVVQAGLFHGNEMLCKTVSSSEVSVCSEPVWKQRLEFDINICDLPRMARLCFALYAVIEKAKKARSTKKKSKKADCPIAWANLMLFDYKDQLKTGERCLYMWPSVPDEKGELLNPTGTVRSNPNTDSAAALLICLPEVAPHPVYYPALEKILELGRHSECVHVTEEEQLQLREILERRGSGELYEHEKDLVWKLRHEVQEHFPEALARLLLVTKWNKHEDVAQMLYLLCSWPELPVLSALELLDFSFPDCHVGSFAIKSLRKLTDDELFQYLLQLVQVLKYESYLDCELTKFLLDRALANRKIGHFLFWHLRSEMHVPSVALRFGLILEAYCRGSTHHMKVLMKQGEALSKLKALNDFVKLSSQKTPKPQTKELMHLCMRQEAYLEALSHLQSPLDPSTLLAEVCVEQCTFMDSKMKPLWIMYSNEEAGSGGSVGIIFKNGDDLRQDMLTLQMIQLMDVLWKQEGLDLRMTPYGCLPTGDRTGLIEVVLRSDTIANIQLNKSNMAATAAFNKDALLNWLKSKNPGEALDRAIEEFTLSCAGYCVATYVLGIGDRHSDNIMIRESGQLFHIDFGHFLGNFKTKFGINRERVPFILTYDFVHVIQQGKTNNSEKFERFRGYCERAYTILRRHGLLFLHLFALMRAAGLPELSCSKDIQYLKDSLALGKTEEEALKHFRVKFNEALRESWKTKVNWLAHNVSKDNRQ
# OCI-Ly7 = experiment: Cytotoxicity against human OCILY7 cells transfected with c-Myc-expressing plasmid (M+) assessed as reduction in cell viability at 3 to 5 uM incubated for 24 hrs in presence of carfilzomib by cell-titer glo assay; assay type: functional, cell-based; details: dose 3-5 µM
# NCI-H929 = experiment: Cytotoxicity against human NCI-H929 cells transduced with an empty vector assessed as reduction in cell viability at 5 uM incubated for 24 hrs in presence of carfilzomib by cell-titer glo assay; assay type: functional, cell-based
# [4] = target: Casein kinase I isoform epsilon (Homo sapiens, UniProt P49674); experiment: Inhibition of CK1epsilon in human LY7 cells assessed as reduction in CK1epsilon autophosphorylation at 10 to 25 uM preincubated for 1 hr followed by addition of PP2A inhibitor calyculin A and measured after 15 to 60 mins by Western blot analysis; assay type: cell-based; details: dose 10-25 µM, time lower 75.0 min, time upper […]
# Casein kinase I isoform epsilon, sequence (P49674 whole entry, looked up, canonical isoform): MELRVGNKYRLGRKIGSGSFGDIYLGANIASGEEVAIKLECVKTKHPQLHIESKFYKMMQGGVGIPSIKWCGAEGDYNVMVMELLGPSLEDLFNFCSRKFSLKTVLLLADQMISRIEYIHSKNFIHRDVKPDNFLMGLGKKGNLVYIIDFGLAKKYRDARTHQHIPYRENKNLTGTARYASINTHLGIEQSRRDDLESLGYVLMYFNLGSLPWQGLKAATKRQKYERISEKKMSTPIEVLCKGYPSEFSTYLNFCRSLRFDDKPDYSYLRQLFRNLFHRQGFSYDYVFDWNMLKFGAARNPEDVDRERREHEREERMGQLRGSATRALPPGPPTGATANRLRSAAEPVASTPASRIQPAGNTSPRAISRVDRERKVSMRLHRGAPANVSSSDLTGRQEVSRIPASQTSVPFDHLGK
# Myc proto-oncogene protein (Homo sapiens), sequence (P01106 whole entry): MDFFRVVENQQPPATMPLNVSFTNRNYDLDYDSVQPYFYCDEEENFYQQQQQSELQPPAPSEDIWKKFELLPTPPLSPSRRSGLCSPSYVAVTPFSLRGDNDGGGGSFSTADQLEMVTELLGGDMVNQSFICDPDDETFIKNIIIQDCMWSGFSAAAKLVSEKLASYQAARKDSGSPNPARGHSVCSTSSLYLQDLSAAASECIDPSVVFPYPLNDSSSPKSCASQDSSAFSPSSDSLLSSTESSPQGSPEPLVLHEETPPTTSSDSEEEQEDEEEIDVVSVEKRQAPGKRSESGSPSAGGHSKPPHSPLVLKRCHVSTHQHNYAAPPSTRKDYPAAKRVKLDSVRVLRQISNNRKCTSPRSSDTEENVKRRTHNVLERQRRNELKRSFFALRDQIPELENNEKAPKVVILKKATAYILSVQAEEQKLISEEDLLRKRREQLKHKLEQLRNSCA
# mTORC1 (Homo sapiens), sequence (Q8N122 whole entry, looked up, other chains not shown, canonical isoform): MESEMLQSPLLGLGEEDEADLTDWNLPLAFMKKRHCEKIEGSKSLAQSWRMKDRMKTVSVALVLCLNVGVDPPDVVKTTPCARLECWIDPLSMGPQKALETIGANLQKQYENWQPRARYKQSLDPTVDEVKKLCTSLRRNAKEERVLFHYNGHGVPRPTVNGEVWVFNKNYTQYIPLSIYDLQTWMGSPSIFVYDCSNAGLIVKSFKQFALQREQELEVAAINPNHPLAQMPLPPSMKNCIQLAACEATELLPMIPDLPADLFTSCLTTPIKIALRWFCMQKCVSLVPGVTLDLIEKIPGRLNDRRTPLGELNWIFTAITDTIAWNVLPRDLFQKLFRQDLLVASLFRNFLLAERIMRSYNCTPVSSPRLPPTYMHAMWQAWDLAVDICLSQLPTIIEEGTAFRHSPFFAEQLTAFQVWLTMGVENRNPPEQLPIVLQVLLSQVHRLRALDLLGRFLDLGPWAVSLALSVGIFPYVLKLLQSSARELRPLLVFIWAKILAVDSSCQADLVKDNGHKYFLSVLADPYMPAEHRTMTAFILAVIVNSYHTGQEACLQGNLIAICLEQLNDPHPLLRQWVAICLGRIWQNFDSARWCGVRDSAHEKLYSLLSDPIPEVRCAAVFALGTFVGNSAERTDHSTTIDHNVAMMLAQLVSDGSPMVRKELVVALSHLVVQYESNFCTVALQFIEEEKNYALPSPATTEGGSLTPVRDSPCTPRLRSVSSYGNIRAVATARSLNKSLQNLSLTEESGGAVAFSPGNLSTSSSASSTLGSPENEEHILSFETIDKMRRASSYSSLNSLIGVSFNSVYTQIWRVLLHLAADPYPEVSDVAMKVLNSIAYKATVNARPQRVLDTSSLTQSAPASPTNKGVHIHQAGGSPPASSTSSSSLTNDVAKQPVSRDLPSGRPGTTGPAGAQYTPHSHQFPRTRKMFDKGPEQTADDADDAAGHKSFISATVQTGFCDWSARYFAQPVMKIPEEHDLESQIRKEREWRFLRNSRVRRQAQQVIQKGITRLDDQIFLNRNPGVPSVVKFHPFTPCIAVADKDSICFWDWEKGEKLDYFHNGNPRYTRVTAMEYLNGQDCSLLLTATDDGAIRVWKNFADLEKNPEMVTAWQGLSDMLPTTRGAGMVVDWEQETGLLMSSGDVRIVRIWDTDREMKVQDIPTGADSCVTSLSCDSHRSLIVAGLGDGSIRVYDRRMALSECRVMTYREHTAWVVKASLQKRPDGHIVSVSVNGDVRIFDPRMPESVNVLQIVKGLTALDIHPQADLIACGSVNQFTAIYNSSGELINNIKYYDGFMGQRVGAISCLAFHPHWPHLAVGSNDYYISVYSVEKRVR
# mTORC1 (Homo sapiens), sequence (Q9BVC4 whole entry, looked up, other chains not shown, canonical isoform): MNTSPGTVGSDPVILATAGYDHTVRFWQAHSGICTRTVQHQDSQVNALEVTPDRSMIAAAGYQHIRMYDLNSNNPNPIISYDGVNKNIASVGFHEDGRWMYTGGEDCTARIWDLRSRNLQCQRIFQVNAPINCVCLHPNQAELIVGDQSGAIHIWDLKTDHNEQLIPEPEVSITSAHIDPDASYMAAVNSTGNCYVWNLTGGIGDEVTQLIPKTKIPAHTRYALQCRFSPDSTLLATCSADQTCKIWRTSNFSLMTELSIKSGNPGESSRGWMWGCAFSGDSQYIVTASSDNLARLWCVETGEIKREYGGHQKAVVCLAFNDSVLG
SMILES,inhibition [1],Activity [2],inhibition (mTORC1 (Homo sapiens)),inhibition [3] [%],Activity (OCI-Ly7),Activity (NCI-H929),inhibition [4]
CC[C@H](Nc1ncnc2[nH]cnc12)c1nc2cccc(F)c2c(=O)n1-c1ccccc1,inactive,–,–,–,–,–,–
CC(C)Oc1ccc(-c2nn([C@@H](C)c3oc4ccc(F)cc4c(=O)c3-c3cccc(F)c3)c3ncnc(N)c23)cc1F [UMBRALISIB],–,Non-Toxic,Active,43,inactive,Active,Active
